These results are taken from paper PMC5538713, “RORγt and RORα signature genes in human Th17 cells” (PLoS ONE, 2017).

pKd: −log10 of the molar value. Like-named read-outs stand apart in the source and are kept apart here.

Assay [1] concerns OP2. The assay is described as follows: Cerep selectivity panel. Format: binding.
Assay [2] has as its target T1, 5HT5A (h) (Homo sapiens, UniProt P47898).
T1 construct: purchased Cerep
The assay is described as follows: Cerep selectivity panel. The format is binding. As to conditions: for inhibition at 1 µM: read-out: % Inhibition at 1µM; for inhibition at 10 µM: read-out: % Inhibition at 10µM. The method, then: (§1) Supplementary file pone.0181868.s003.docx: S3 Table Selectivity profile of RORγt inverse agonists A, B, C and D. Compounds were evaluated at 1 μM and 10 μM in a panel of assays against 50 receptors, ion channels and transporters (Profile service by Cerep Inc.). (DOCX) Click here for additional data file.
(§2) S3 Table. RORɣt inverse agonists A, B, C and D were evaluated at 1 µM and 10 µM in a panel of assays against 50 receptors, ion channels and transporters (Profile service by Cerep Inc.).

Assay [3] addresses T2, NK2 (h) (Homo sapiens, UniProt P21452).
T2 construct: purchased Cerep
T2 sequence (P21452 1-398): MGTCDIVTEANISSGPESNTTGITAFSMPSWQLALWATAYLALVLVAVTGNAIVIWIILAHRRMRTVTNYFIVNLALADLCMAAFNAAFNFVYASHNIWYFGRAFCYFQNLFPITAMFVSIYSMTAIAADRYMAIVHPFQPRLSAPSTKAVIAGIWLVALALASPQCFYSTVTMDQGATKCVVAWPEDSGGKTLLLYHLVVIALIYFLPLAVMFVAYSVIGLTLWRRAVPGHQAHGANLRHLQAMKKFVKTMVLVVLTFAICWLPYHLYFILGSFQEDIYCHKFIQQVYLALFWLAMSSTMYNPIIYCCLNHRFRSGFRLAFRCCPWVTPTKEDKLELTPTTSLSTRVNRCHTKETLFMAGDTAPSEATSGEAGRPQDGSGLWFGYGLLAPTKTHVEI
The assay is described as follows: Cerep selectivity panel. As to conditions: for inhibition at 1 µM: read-out: % Inhibition at 1µM; for inhibition at 10 µM: read-out: % Inhibition at 10µM. The format is binding. How it is done:
as §1, §2

For assay [4], the target named is T3, 5HT3 (h) (Homo sapiens, UniProt P46098).
T3 construct: purchased Cerep
T3 sequence (P46098 24-478): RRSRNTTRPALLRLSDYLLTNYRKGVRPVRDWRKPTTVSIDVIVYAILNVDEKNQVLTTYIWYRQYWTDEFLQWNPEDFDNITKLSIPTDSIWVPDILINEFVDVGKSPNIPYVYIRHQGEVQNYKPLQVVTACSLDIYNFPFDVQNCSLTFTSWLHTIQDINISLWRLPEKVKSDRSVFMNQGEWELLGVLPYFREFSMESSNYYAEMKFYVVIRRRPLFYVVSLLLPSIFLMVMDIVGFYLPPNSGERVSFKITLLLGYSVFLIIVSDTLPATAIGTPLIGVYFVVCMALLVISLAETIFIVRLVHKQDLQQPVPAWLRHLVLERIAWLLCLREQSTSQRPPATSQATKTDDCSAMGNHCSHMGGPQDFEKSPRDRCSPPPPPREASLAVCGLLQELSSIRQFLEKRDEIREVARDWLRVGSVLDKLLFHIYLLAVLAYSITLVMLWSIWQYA
Kind of assay: Cerep selectivity panel. To be noted: for inhibition at 1 µM: read-out: % Inhibition at 1µM; for inhibition at 10 µM: read-out: % Inhibition at 10µM. The format is binding. The method, then: as §1, §2

The target in assay [5] is T4, RORα LBD (Homo sapiens, UniProt P35398).
T4 construct: made in house; host or cells: E. coli BL21DE3 GOLD, pET24a
T4 sequence (P35398 304-556 isoform P35398-1): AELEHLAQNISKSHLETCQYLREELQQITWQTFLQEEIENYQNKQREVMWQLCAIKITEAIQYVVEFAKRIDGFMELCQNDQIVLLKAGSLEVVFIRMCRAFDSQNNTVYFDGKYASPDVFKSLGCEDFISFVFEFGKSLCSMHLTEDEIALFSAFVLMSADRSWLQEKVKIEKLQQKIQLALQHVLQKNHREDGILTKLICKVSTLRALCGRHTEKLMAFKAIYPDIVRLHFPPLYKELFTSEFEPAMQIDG
The assay is described as follows: ThermoFluor binding assay, RORα LBD. To be noted: for Kd: recombinant human LBD, read-out: ThermoFlour Binding Assay (Kd, nM) RORα. The method, then:
Recombinant human RORγ, RORα and RORβ LBD proteins were prepared for ThermoFlour binding assay. The nucleotide sequences encoding the ligand binding domains (LBD) of human RORγ (Genbank accession no. NP005051, amino acid 237–497), RORα (Genbank accession no. NP599022, amino acid 304–556), and RORβ (Genbank accession no. NP008845, amino acid 201–452) were PCR-amplified and cloned into pET24a (Novagen) for expression in bacteria. All recombinant proteins contained an additional amino acid sequence of […] at the N-terminal of LBD. After transformation of the bacteria strain BL21DE3 GOLD (Agilent) with the plasmids, 10 to 20 L cultures were grown to 1 OD and recombinant protein expression was induced overnight at 16°C with 0.2mM isopropyl-beta-D-thiogalactopyranoside (IPTG) (Corning). […]. His-tagged proteins were collected with Ni-NTA resin (Qiagen) and purified with a HiTrap Q HP column (GE Life Sciences) eluted with a 40 CV gradient of 50-500mM NaCl.
The ThermoFluor® assay was established to measure the change in protein stability upon binding with compounds. 1-Anilinonaphthalene-8-Sulfonic Acid (1,8-ANS) (Invitrogen) was used as a fluorescent dye to label the test proteins. The assay was performed in polypropylene PCR microplates (TF-0384/k, Abgene) with a final assay of 3 μL reaction mixture per well overlaid with 1 μL silicone oil (Sigma-Aldrich). Assay plates were robotically loaded onto a thermostatically controlled PCR-type thermal block and then heated at a ramp-rate of 1°C/min. Fluorescence emission was initiated by continuous illumination with UV light (LC6, Hamamatsu) via fiber optic with a band-pass filter (380–400 nm) and detected with a CCD camera (Sensys, Roper Scientific) filtered to detect signal of 500 ± 25 nm. Reference wells contained recombinant LBD of RORγt, RORα or RORβ alone, and the assay conditions were as follows: 0.065 mg/mL RORγt LBD, 60 μM 1,8-ANS, 100 mM HEPES pH 7.0, 10 mM NaCl, 2.5 mM GSH, 0.002% Tween- 20; 0.1 mg/mL RORα, 70 μM 1,8-ANS, 25 mM HEPES pH 7.0, 50 mM NaCl, 0.001% Tween-20; 0.08 mg/mL RORβ, 60 μM 1,8-ANS, 50 mM HEPES pH 7.0, 100 mM NaCl, 0.001% Tween-20. All 3 assays were performed in the absence and in the presence of 100 μM co-activator peptide SRC1 ([…], England Peptide custom synthesis). The binding affinity of test compounds was estimated as described previously.

The subject of assay [6] is human CD4 T cells under Th17 conditions. Kind of assay: cells. To be noted: read-out: Th17 Proliferation (IC50, nM).
In assay [7] the test system is ML1. The assay is described as follows: Cerep selectivity panel. Format: binding.
The test system of assay [8] is GABA. The assay is described as follows: Cerep selectivity panel. Format: binding.
The target of assay [9] is T5, A2A (h) (Homo sapiens, UniProt P29274).
T5 construct: purchased Cerep
T5 sequence (P29274 whole entry): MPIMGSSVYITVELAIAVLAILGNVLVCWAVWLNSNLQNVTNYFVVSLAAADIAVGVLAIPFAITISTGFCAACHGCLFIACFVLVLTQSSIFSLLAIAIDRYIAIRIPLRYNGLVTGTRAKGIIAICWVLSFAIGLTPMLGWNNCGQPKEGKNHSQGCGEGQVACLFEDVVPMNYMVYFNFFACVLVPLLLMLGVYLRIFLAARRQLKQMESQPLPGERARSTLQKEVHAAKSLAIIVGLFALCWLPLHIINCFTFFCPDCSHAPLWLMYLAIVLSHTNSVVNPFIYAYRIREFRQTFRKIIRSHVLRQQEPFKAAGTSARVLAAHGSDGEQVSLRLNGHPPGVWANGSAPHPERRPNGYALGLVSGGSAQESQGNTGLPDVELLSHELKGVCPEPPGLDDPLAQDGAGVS
Kind of assay: Cerep selectivity panel. Format: binding. As to conditions: for inhibition at 1 µM: read-out: % Inhibition at 1µM; for inhibition at 10 µM: read-out: % Inhibition at 10µM. The method, then: as §1, §2

T1 sequence (P47898 whole entry): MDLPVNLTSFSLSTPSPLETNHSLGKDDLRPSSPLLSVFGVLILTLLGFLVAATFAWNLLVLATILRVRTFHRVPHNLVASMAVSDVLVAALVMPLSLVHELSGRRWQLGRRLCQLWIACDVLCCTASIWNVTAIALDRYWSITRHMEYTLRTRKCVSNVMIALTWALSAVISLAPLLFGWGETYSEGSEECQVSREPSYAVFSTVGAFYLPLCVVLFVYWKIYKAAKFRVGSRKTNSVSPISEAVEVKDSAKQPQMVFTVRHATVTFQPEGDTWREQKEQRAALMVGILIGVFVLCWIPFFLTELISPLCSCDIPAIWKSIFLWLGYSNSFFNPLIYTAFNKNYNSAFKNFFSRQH

As for `COc1nc2ccc([C@](O)(c3ccc(Cl)cc3)c3cncn3C)cc2c(Cl)c1Cc1ccc(-n2cccn2)cc1` [B], the “% Inhibition at 10µM” value in assay [1] turned out to be 10%; in assay [7] it was 38%. Moreover, the values for the inhibition at 1 µM in assay [2], in [3] and in assay [4] were 25%, 9% and 16%, respectively. The inhibition at 10 µM worked out at 31% in [2], 30% in assay [3] and 19% in [4]. Moreover, in [5], the pKd is less than 4.71. Moreover, in [6], the IC50 was more than 240 nM. For the same compound, the results for the “% Inhibition at 1µM” value in [7] and in [8] were 13% and 9%, respectively.
On to `COc1nc2ccc([C@@](O)(c3ccccc3)C3CCN(C(C)=O)CC3)cc2c(Cl)c1Cc1ccc(-n2cccn2)cc1` [C], for which the “% Inhibition at 10µM” value in assay [1] was determined as 12%; in assay [7] it was 27%; in assay [8] (10 µM), 12%. For the same compound, the inhibition at 1 µM in assay [2] came out at 13%; in [9], 18%. Further, the inhibition at 10 µM in assay [2] was found to be 23%; in [3], 19%; in [9], 21%; in assay [4] it was 18%. Further, the Kd in [5] is more than 70000 nM. Moreover, in assay [6], the IC50 is more than 240 nM. In assay [7], the “% Inhibition at 1µM” value turned out to be 4%.
Turning to `COc1nc2ccc([C@@](O)(c3ccc(C)nc3C)c3cnnn3C)cc2c(Cl)c1Cc1ccc(C(F)(F)F)cc1` [compound A], the figures for the “% Inhibition at 1µM” value in assay [1] (1 µM) and in assay [8] were 9% and 8%, respectively. Further, the “% Inhibition at 10µM” value in assay [1] is recorded as 37%; in assay [7], 39%. The inhibition at 1 µM in assay [2] (5HT5A (h), 1 µM) amounted to 7%; in [3] (NK2 (h), 1 µM) it was 7%; in [9] (A2A (h), 1 µM), 20%; in assay [4] (5HT3 (h), 1 µM), 7%. In addition, the inhibition at 10 µM in [2] (5HT5A (h), 10 µM) was 84%; in assay [3] (NK2 (h), 10 µM) it was 41%; in [9] (A2A (h), 10 µM), 5%; in assay [4] (5HT3 (h), 10 µM), 29%. Besides, the equilibrium dissociation constant (Kd) in [5] amounted to 166 nM. Further, the IC50 in assay [6] was more than 240 nM.
Regarding `CN(C)c1nc2ccc(C(O)(c3ccncc3)c3cncn3C)cc2c(Cl)c1-c1ccccc1` (stereo not shown) [compound D], the inhibition at 10 µM in [2] turned out to be 42%; in assay [3], 98%; in [9], 43%; in [4] it was 17%. Further, the inhibition at 1 µM turned out to be 9% in assay [3], 2% in assay [9] and 8% in [4]. For the same compound, in assay [5], the pKd was 6.72.

For orientation: % Inhibition means the percentage by which the read-out fell short of the control. Usually inhibition stands for how much of the control response was suppressed. One may read the pKd as −log10 of the Kd, conventionally taken in molar units. In general, Kd refers to a measure of binding affinity in units of concentration.
